The record followed here is patent publication US12435087B2, “Modulators of DCN-1 and methods of use thereof” (Cellarity, Inc., priority 2023, dated 2025).

Like-named read-outs stand apart in the source and are kept apart here.

Assay [1] concerns the target DCN1 (DCUND1) protein PONY domain (Homo sapiens (Human), UniProt Q96GG9). As to the kind of experiment: TR-FRET assay (binding to DCN-1, displacement of FAM-labeled probe). Put shortly: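 Compounds read at 1, 5 and 24 h, 0.1% final DMSO, by TR-FRET between terbium-streptavidin on biotinylated DCN1 PONY domain (E. coli) and a FAM-tagged non-covalent inhibitor probe. Two setups used, 5 nM protein with 20 nM labelled probe, or 0.31 nM protein with 100 nM labelled plus 800 nM unlabelled probe; buffer had TritonX and 200 mM NaCl. % activity relative to high (with probe) and low (without probe) controls.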

Another assay concerns the target DCN1 protein (Homo sapiens (Human), UniProt Q96GG9). The assay can be described thus: Intact protein MS analysis with the RapidFire-TOF system (covalent adduct formation). The format is binding. The note with it: 400 nM DCN1, incubated at room temperature for 3 hours. Put shortly:
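Tag-free His-TEV-DCN1 expressed in E. coli at 400 nM in 25 mM Tris-HCl, 200 mM NaCl, 1 mM DTT, incubated with 11 compound concentrations at room temperature for 3 h unless otherwise specified. Quenched with 0.2% formic acid; intact-protein RapidFire Q-TOF MS, deconvoluted to detect parent and compound-adduct masses.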

[2] abbreviates: 24 hr after treatment with compound, read-out: TR FRET IC50 24 hr.

Chain of DCN1 (DCUND1) protein PONY domain (Q96GG9 60-248): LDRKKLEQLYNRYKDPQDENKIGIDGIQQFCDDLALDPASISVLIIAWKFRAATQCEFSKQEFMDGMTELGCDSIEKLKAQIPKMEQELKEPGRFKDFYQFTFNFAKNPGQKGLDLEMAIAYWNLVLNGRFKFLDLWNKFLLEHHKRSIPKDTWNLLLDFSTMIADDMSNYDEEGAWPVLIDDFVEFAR
Chain of DCN1 protein (Q96GG9 whole entry): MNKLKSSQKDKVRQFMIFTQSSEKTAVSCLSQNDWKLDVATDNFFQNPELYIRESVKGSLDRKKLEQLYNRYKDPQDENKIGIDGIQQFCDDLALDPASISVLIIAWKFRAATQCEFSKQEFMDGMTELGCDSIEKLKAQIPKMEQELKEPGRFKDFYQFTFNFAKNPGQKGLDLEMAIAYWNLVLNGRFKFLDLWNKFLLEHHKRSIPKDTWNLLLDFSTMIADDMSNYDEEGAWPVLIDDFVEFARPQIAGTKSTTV

Regarding `C=C(CN1CCOCC1)C(=O)Nc1cccc([C@@H]2c3c(C)nn(-c4ccccc4)c3N(CC)C(=O)[C@H]2NC(=O)c2cccc(C(F)(F)F)c2)c1` [Compound I-2, N-((4R,5S)-7-ethyl-3-methyl-4-(3-(2-(morpholinomethyl)acrylamido)phenyl)-6-oxo-1-phenyl-4,5,6,7-tetrahydro-1H-pyrazolo[3,4-b]pyridin-5-yl)-3-(trifluoromethyl)benzamide], the IC50 was ≤ 200 nM in assay [1] (setting [2]) and ≤ 200 nM in assay [1] (read-out: TR FRET IC50 1 hr, 1 hr after treatment with compound). The compound further came in with an Emax on DCN1 protein of 80 to 100%.
For the compound `C/C=C(\CN1CCN(C2COC2)CC1)C(=O)Nc1cccc([C@@H]2c3cnn(-c4ccccc4)c3N(CC)C(=O)[C@H]2NC(=O)c2csc(C(F)(F)F)n2)c1` [Compound I-234, N-((4R,5S)-7-ethyl-4-(3-((E)-2-((4-(oxetan-3-yl)piperazin-1-yl)methyl)but-2-enamido)phenyl)-6-oxo-1-phenyl-4,5,6,7-tetrahydro-1H-pyrazolo[3,4-b]pyridin-5-yl)-2-(trifluoromethyl)thiazole-4-carboxamide], the IC50 in assay [1] (setting [2]) was ≤ 200 nM; in assay [1] (TR FRET IC50 1 hr (nM), 1 hr after treatment with compound), ≤ 200 nM. At DCN1 protein, this compound returned a maximum response (Emax) of 80 to 100%.
